# Where two headings read alike, the source gives them in different places.
# Columns and labels:
# [1] = target: T1, human MOP receptor (Homo sapiens, UniProt P35372); experiment: biochemical
# [2] = target: T2, human DOP receptor (Homo sapiens, UniProt P41143); experiment: Radioligand competition binding, [3H]DPDPE, membranes of transfected CHO cells
# [3] = target: T1, human MOP receptor; experiment: Radioligand competition binding, [3H]DAMGO, membranes of transfected CHO cells
# [4] = target: T1, human MOP receptor; conditions: read-out: MOP Ki; Figure 1; cited from earlier work
# [5] = target: T3, human KOP receptor (Homo sapiens, UniProt P41145); design: method as in PMID 25635572; conditions: Figure 1; cited from earlier work
# [6] = target: T3, human KOP receptor; experiment: biochemical
# [7] = target: T3, human KOP receptor; experiment: Radioligand competition binding, [3H]U69,593, membranes of transfected CHO cells (Kappa-CN)
# [8] = target: T2, human DOP receptor; conditions: read-out: DOP Ki; Figure 1; cited from earlier work
# [9] = target: T2, human DOP receptor; experiment: [35S]GTPγS functional assay (intrinsic activity; Schild analysis vs DPDPE); type: biochemical; conditions: inhibition of agonist-induced [35S]GTPγS binding, read-out: Antagonist Potency (pA2 ± SEM) DOP (converted)
# [10] = target: T4, human NOP receptor (Homo sapiens, UniProt P41146); experiment: Radioligand competition binding, [3H]N/OFQ, membranes of transfected CHO cells
# [11] = target: T4, human NOP receptor; experiment: [35S]GTPγS functional assay (intrinsic activity; Schild analysis vs N/OFQ); type: biochemical
# [12] = test system: NOP; design: method as in PMID 16451050; conditions: Figure 1; cited from earlier work
# [13] = target: T4, human NOP receptor; design: method as in PMID 25635572; conditions: Figure 1; cited from earlier work
# [14] = read-out: Receptor Binding, Ki DOP
# [15] = read-out: Receptor Binding, Ki MOP
# [16] = read-out: Receptor Binding, Ki KOP
# [17] = [3H]N/OFQ displacement, Cheng-Prusoff, mean ± SEM, at least three experiments in triplicate, read-out: Receptor Binding, Ki NOP
# [18] = [3H]DAMGO displacement, Cheng-Prusoff, mean ± SEM, at least three experiments in triplicate, read-out: Receptor Binding, Ki MOP
# [19] = [3H]U69,593 displacement, Cheng-Prusoff, mean ± SEM, at least three experiments in triplicate, read-out: Receptor Binding, Ki KOP
compound,measurement,setting,value
"CC(C)[C@@H](CN1CCC(c2cccc(O)c2)CC1)NC(=O)[C@H]1Cc2ccc(O)cc2CN1 [1 (AT-076), (R)-7-hydroxy-N-((S)-1-(4-(3-hydroxyphenyl)piperidin-1-yl)-3-methylbutan-2-yl)-1,2,3,4-tetrahydroisoquinoline-3-carboxamide]",Antagonist Potency (pA2 ± SEM) MOP,[1]; cho cell membranes,9.24
same,Ki,[2]; [14],19.6 ± 1.3 nM
same,Ki,[3]; [15],1.67 ± 0.6 nM
same,Ki,[4],1.67 ± 0.6 nM
same,Ki,[5],1.14 ± 0.63 nM
same,Antagonist Potency (pA2 ± SEM) KOP,[6]; cho cell membranes,8.366
same,Ki,[7]; [16],1.14 ± 0.63 nM
same,Ki,[8],19.6 ± 1.3 nM
same,Kb,[9],26.9 nM
"CC(C)[C@@H](CN1CCC(c2cccc(O)c2)CC1)NC(=O)[C@H]1Cc2ccc(C#N)cc2CN1 [Compound 2, (R)-7-cyano-N-((S)-1-(4-(3-hydroxyphenyl)piperidin-1-yl)-3-methylbutan-2-yl)-1,2,3,4-tetrahydroisoquinoline-3-carboxamide]",Ki,[10]; [17],1890 ± 270 nM
same,Ki,[2],73.7 ± 57.9 nM
same,Ki,[3],81.7 ± 12.4 nM
same,Profile in Schild analysis KOP,[6],N/C^#
same,Decrease in KOP binding affinity compared to AT-076,[7],6 fold
same,Ki,[7],6.73 ± 1.42 nM
"CC(C)[C@@H](CN1CCC(c2cccc(O)c2)CC1)NC(=O)[C@H]1Cc2ccc(CN)cc2CN1 [Compound 3, (R)-7-(aminomethyl)-N-((S)-1-(4-(3-hydroxyphenyl)piperidin-1-yl)-3-methylbutan-2-yl)-1,2,3,4-tetrahydroisoquinoline-3-carboxamide]",Ki,[10]; [17],5540 ± 1150 nM
same,Decrease in DOP binding affinity compared to AT-076,[2],> 100 fold
same,Ki,[2]; [14],1570 ± 1130 nM
same,Decrease in MOP binding affinity compared to AT-076,[3],> 100 fold
same,Ki,[3]; [18],1490 ± 220 nM
same,Decrease in KOP binding affinity compared to AT-076,[7],> 100 fold
same,Ki,[7]; [19],118 ± 29 nM
"CC(C)[C@@H](CN1CCC(c2cccc(O)c2)CC1)NC(=O)[C@H]1Cc2ccc(CNC(=N)N)cc2CN1 [Compound 4, (R)-7-(guanidinomethyl)-N-((S)-1-(4-(3-hydroxyphenyl)piperidin-1-yl)-3-methylbutan-2-yl)-1,2,3,4-tetrahydroisoquinoline-3-carboxamide]",Ki,[10]; [17],3260 ± 780 nM
same,Ki,[2]; [14],> 10000 nM
same,Decrease in DOP binding affinity compared to AT-076,[2]; vs lead AT-076 (1),> 100 fold
same,Ki,[3]; [18],180 ± 70 nM
same,Decrease in MOP binding affinity compared to AT-076,[3]; vs lead AT-076 (1),> 100 fold
same,Ki,[7]; [19],129 ± 60 nM
same,Decrease in KOP binding affinity compared to AT-076,[7]; vs lead AT-076 (1),> 100 fold
"CC(C)[C@@H](CN1CCC(c2cccc(O)c2)CC1)NC(=O)[C@H]1Cc2ccc(CNS(C)(=O)=O)cc2CN1 [Compound 5, (R)-N-((S)-1-(4-(3-hydroxyphenyl)piperidin-1-yl)-3-methylbutan-2-yl)-7-(methylsulfonamidomethyl)-1,2,3,4-tetrahydroisoquinoline-3-carboxamide]",Ki,[10]; [17],7910 ± 1470 nM
same,Ki,[2]; [14],> 10000 nM
same,Ki,[3]; [18],4400 ± 2350 nM
same,Ki,[7]; [19],295 ± 65 nM
"CC(C)[C@@H](CN1CCC(c2cccc(O)c2)CC1)NC(=O)[C@@H](N)CCCCN [Compound 6, (S)-2,6-diamino-N-((S)-1-(4-(3-hydroxyphenyl)piperidin-1-yl)-3-methylbutan-2-yl)hexanamide]",Ki,[10]; [17],> 10000 nM
same,Ki,[2]; [14],> 10000 nM
same,Ki,[3]; [18],> 10000 nM
same,Ki,[7]; [19],1520 ± 419 nM
"CC(C)[C@@H](CN1CCC(c2cccc(O)c2)CC1)NC(=O)[C@@H](N)CCCNC(=N)N [Compound 7, (S)-2-amino-5-guanidino-N-((S)-1-(4-(3-hydroxyphenyl)piperidin-1-yl)-3-methylbutan-2-yl)pentanamide]",Ki,[10]; [17],> 10000 nM
same,Ki,[2]; [14],> 10000 nM
same,Ki,[3]; [18],1440 ± 57.6 nM
same,Ki,[7]; [19],125 ± 2.4 nM
"CC(C)[C@@H](CN1CCC(c2cccc(C#N)c2)CC1)NC(=O)[C@H]1Cc2ccc(O)cc2CN1 [Compound 8, (R)-N-((S)-1-(4-(3-cyanophenyl)piperidin-1-yl)-3-methylbutan-2-yl)-7-hydroxy-1,2,3,4-tetrahydroisoquinoline-3-carboxamide]",Ki,[10],61.3 ± 14.6 nM
same,Kb,[1],8.13 nM
same,Ki,[2]; [14],136 ± 59.7 nM
same,Ki,[3],2.93 ± 0.67 nM
same,Kb,[6],0.269 nM
same,Ki,[7],3.86 ± 0.09 nM
"CC(C)[C@@H](CN1CCC(c2cccc(C#N)c2)CC1)NC(=O)[C@H]1Cc2ccccc2CN1 [Compound 9, (R)-N-((S)-1-(4-(3-cyanophenyl)piperidin-1-yl)-3-methylbutan-2-yl)-1,2,3,4-tetrahydroisoquinoline-3-carboxamide]",Ki,[10]; [17],> 10000 nM
same,Ki,[2]; [14],> 10000 nM
same,Ki,[3]; [18],973 ± 21 nM
same,Ki,[7]; [19],543 ± 62.2 nM
"CC(C)[C@@H](CN1CCC(c2cccc(CN)c2)CC1)NC(=O)[C@H]1Cc2ccc(O)cc2CN1 [Compound 10, (R)-N-((S)-1-(4-(3-(aminomethyl)phenyl)piperidin-1-yl)-3-methylbutan-2-yl)-7-hydroxy-1,2,3,4-tetrahydroisoquinoline-3-carboxamide]",Increase in NOP binding affinity compared to cyano precursor 8,[10],2 fold
same,Ki,[10],30.7 ± 14.5 nM
same,Kb,[1],15.5 nM
same,Ki,[2]; [14],133 ± 24.9 nM
same,Ki,[3],0.68 ± 0.28 nM
same,Kb,[6],0.38 nM
same,Kb,[11],132 nM
same,Ki,[7],1.08 ± 0.01 nM
"CC(C)[C@@H](CN1CCC(c2cccc(CN)c2)CC1)NC(=O)[C@H]1Cc2ccccc2CN1 [Compound 11, (R)-N-((S)-1-(4-(3-(aminomethyl)phenyl)piperidin-1-yl)-3-methylbutan-2-yl)-1,2,3,4-tetrahydroisoquinoline-3-carboxamide]",Ki,[10]; [17],202 ± 55.6 nM
same,Ki,[2]; [14],> 10000 nM
same,Ki,[3]; [18],284 ± 75.3 nM
same,Ki,[7]; [19],408 ± 30.8 nM
"CC(C)[C@@H](CN1CCC(c2cccc(CNC(=O)[C@@H](N)CCCNC(=N)N)c2)CC1)NC(=O)[C@H]1Cc2ccc(O)cc2CN1 [Compound 12, (R)-N-((S)-1-(4-(3-(((S)-2-amino-5-guanidinopentanamido)methyl)phenyl)piperidin-1-yl)-3-methylbutan-2-yl)-7-hydroxy-1,2,3,4-tetrahydroisoquinoline-3-carboxamide]",Ki,[10],6.04 ± 1.32 nM
same,Kb,[1],0.692 nM
same,Ki,[2],53.6 ± 7.12 nM
same,Ki,[3],5.67 ± 2.38 nM
same,Kb,[6],0.158 nM
same,Kb,[11],5.01 nM
same,Ki,[7],2.11 ± 0.52 nM
"CC(C)[C@@H](CN1CCC(c2cccc(CNC(=O)[C@@H](N)CCCNC(=N)N)c2)CC1)NC(=O)[C@H]1Cc2ccccc2CN1 [Compound 13, (R)-N-((S)-1-(4-(3-(((S)-2-amino-5-guanidinopentanamido)methyl)phenyl)piperidin-1-yl)-3-methylbutan-2-yl)-1,2,3,4-tetrahydroisoquinoline-3-carboxamide]",Ki,[10],43.3 ± 19.1 nM
same,Ki,[2]; [14],> 10000 nM
same,Ki,[3]; [18],408 ± 37.3 nM
same,Ki,[7],56.1 ± 5.38 nM
"CC(C)[C@@H](CN1CCC(C2CCCCC2)CC1)NC(=O)[C@H]1Cc2ccc(O)cc2CN1 [Compound 14, (R)-N-((S)-1-(4-cyclohexylpiperidin-1-yl)-3-methylbutan-2-yl)-7-hydroxy-1,2,3,4-tetrahydroisoquinoline-3-carboxamide]",Ki,[10],84.4 ± 13.6 nM
same,Kb,[1],0.692 nM
same,Ki,[2],12.4 ± 8 nM
same,Ki,[3],2.79 ± 0.28 nM
same,Kb,[6],0.0347 nM
same,Binding selectivity for KOP over DOP,[7],49 fold
same,Binding selectivity for KOP over MOP,[7],11 fold
same,Binding selectivity for KOP over NOP,[7],333 fold
same,Higher KOP affinity than AT-076,[7],2–4 fold
same,Ki,[7],0.253 ± 0.015 nM
same,Kb,[9],42.3 nM
"CC(C)[C@@H](CN1CCC(N2CCc3ccccc32)CC1)NC(=O)[C@H]1Cc2ccc(O)cc2CN1 [Compound 16, (R)-7-hydroxy-N-((S)-1-(4-(indolin-1-yl)piperidin-1-yl)-3-methylbutan-2-yl)-1,2,3,4-tetrahydroisoquinoline-3-carboxamide]",Ki,[10]; [17],566 ± 129 nM
same,Ki,[2]; [14],138 ± 45 nM
O=C(NCCCN1CCC2(CC1)OCc1ccccc12)C1CCCN1Cc1ccccc1 (stereo not drawn) [Compound C-24],IC50,[12],0.27 ± 0.038 nM
"CC(C)[C@@H](CN1CC[C@@](C)(c2cccc(O)c2)[C@@H](C)C1)NC(=O)[C@H]1Cc2ccc(O)cc2CN1 [JDTic, reference compound]",Ki,[13],16.7 ± 0.76 nM
same,Ki,"[10]; read-out: Receptor Binding, Ki NOP",16.7 ± 0.76 nM
"Cc1cccc2c1CC[C@H](CN1CCC(c3c(Cl)cccc3Cl)CC1)C[C@@H]2O [SB-612111, reference compound]",Ki,[2]; [14],2890 ± 532 nM
same,Ki,[3]; [15],623 ± 156 nM
same,Ki,[7]; [16],541 ± 36.3 nM

# — article PMC5643385, “Probing ligand recognition of the opioid pan antagonist AT-076 at nociceptin, kappa, mu, and delta opioid receptors through structure-activity relationships” (Scientific Reports, 2017)
